According to patent publication US11464749B2, “Bismuth-thiol compositions and methods of use” (Microbion Corporation, priority 2018, dated 2022):
Values after ≈ are worked out from the molar mass of the structure shown. Read-outs that look alike come from different tables or passages of the source.

Assays:
[1] = system: vancomycin-intermediate Staphylococcus aureus (VISA); assay: Broth microdilution MIC (Example 12)
[2] = Particle size distribution of BisEDT samples vs processing conditions (Table 111); type: physicochemical; settings: BisEDT sample
Method: It was observed that careful control of the reaction temperature and the rate of 1,2 ethanedithiol addition had pronounced impact on the BisEDT particle size distribution.
To a 1-L jacketed reactor was charged USP water (480 mL, 48 vol), followed by 70% HNO3 (34 mL, 3.4 vol). A solution of bismuth subnitrate (10 g, 6.84 mmols) in water (43 mL, 4.3 vol) and 70% HNO3 (14 mL, 1.4 vol) was added at 20° C. The reaction mixture was cooled to 15° C. for addition of 95% Ethanol. The 95% ethanol (180 mL, 18 vol) was then added slowly. (Ethanol addition is exothermic, temperature reached 22° C.). The temperature was then adjusted back to 20° C. […] The reaction was stirred at 20° C. overnight. The reaction mixture was filtered through polypropylene cloth and washed with 95% ethanol (45 mL, 4.5 vol). The wet cake was charged back to the reactor and slurried in 95% ethanol (380 mL, 38 vol) for two hours at 20° C. The suspension was then filtered (same cloth) and washed with 95% ethanol (30 mL, 3 vol). The wet cake was again slurried in 95% EtOH (170 mL, 17 vol) at 20° C., filtered (same cloth), and washed with 95% ethanol (30 mL, 3 vol). The wet cake was then slurried in acetone (170 mL, 17 vol) at 20° C. overnight, followed by filtration (same cloth) and acetone wash (20 mL, 2 vol). The acetone (170 ml, 17 vol) treatment was repeated on the solids and stirred for 2 hours. The suspension was filtered (same cloth) and washed with acetone (30 mL, 3 vol) and died at 45° C. and dried at 45° C. (18 hours) to provide canary yellow solid (10.81 g 91.0%).
Representative synthesis of BisEDT at 15° C. with 1 hour addition of thiol via syringe pump, and polypropylene cloth for filtration: The synthesis BisEDT was performed on 10-g scale, temperature profile was studied with data logger. Ethane dithiol was added at 15° C. over 1 hour via syringe pump and the filtration was performed using PP filter cloth. To a 1-L jacketed reactor was charged USP water (480 mL, 48 vol) and cooled to 15° C., followed by 70% HNO3 (34 mL, 3.4 vol). A solution of bismuth subnitrate (10 g, […]) in water (43 mL, 4.3 vol) and 70% HNO3 (14 mL, 1.4 vol) was added at the same temperature. The 95% ethanol (180 mL, 18 vol) was then added slowly. […] It was then allowed to cool to 15° C. This was followed by dropwise addition of 1,2 ethanedithiol (4.3 mL, […] in 95% ethanol in 94 mL, 9.4 vol) over an hour with the batch temperature at 15° C. The reaction was allowed to stir at 15° C. overnight. The reaction mixture was filtered through polypropylene cloth and washed with 95% ethanol (45 mL, 4.5 vol). The wet cake was charged back to the reactor and slurried in 95% ethanol (380 mL, 38 vol) for two hours at 20° C. The suspension was then filtered (same cloth) and washed with 95% ethanol (30 mL, 3 vol). The wet cake was again slurried in 95% EtOH (170 mL, 17 vol) at 20° C., filtered (same cloth), and washed with 95% ethanol (30 mL, 3 vol). The wet cake was then slurried in acetone (170 mL, 17 vol) at 20° C. overnight, followed by filtration (same cloth) and acetone wash (20 mL, 2 vol). The acetone (170 ml, 17 vol) treatment was repeated on the solids and stirred for 2 hours. The suspension was filtered (same cloth) and washed with acetone (30 mL, 3 vol) and died at 45° C. and dried at 45° C. (18 hours) to provide canary yellow solid (10.43 g 87.8%).

SMILES | D (10) [2] [μm] | D (50) [2] [μm] | D (90) [2] [μm] | D [4,3] [2] [μm] | also measured
CCCCCCCCCC(=O)NC(Cc1c[nH]c2ccccc12)C(=O)NC(CC(N)=O)C(=O)NC(CC(=O)O)C(=O)NC1C(=O)NCC(=O)NC(CCCN)C(=O)NC(CC(=O)O)C(=O)NC(C)C(=O)NC(CC(=O)O)C(=O)NCC(=O)NC(CO)C(=O)NC(C(C)CC(=O)O)C(=O)NC(CC(=O)c2ccccc2N)C(=O)OC1C (stereo not shown) [DAP] |  |  |  |  | MIC ([1]; S. aureus NRS 1 (hVISA)): 1 µg/mL (≈ 0.617 µM); MIC ([1]; S. aureus NRS 2): 0.25 µg/mL (≈ 0.154 µM); MIC ([1]; S. aureus NRS 3): 1 µg/mL (≈ 0.617 µM); MIC ([1]; S. aureus NRS 4): 0.5 µg/mL (≈ 0.309 µM); MIC ([1]; S. aureus NRS 13): 2 µg/mL (≈ 1.23 µM); MIC ([1]; S. aureus NRS 18): 0.5 µg/mL (≈ 0.309 µM); MIC ([1]; S. aureus NRS 22): 2 µg/mL (≈ 1.23 µM); MIC ([1]; S. aureus NRS 24 (hVISA)): 0.5 µg/mL (≈ 0.309 µM); MIC ([1]; S. aureus NRS 27): 0.25 µg/mL (≈ 0.154 µM)
CC(=O)NC[C@H]1CN(c2ccc(N3CCOCC3)c(F)c2)C(=O)O1 [linezolid, reference compound] |  |  |  |  | MIC ([1]; Staphylococcus aureus, VISA, read-out: MIC values): ≤ 4 µg/mL
C1C[S][Bi]([S]CC[S][Bi]2[S]CC[S]2)[S]1 [Sample 13] | 0.36 | 0.98 | 2.1 | 1.2 | 
C1C[S][Bi]([S]CC[S][Bi]2[S]CC[S]2)[S]1 [Sample 10] | 0.36 | 0.88 | 1.7 | 0.97 | 
C1C[S][Bi]([S]CC[S][Bi]2[S]CC[S]2)[S]1 [Sample 8] | 0.36 | 1.0 | 1.8 | 1.0 | 
C1C[S][Bi]([S]CC[S][Bi]2[S]CC[S]2)[S]1 [Sample 15] | 0.32 | 0.72 | 1.6 | 0.86 | 
C1C[S][Bi]([S]CC[S][Bi]2[S]CC[S]2)[S]1 [Sample 11] | 0.38 | 1.2 | 2.4 | 1.4 | 
C1C[S][Bi]([S]CC[S][Bi]2[S]CC[S]2)[S]1 [Sample 7] | 0.39 | 1.3 | 1.6 | 1.4 | 
C1C[S][Bi]([S]CC[S][Bi]2[S]CC[S]2)[S]1 [Sample 5] | 0.33 | 0.72 | 1.6 | 0.86 | 
CC(=O)NC[C@H]1CN(c2ccc(N3CCOCC3)c(F)c2)C(=O)O1 [LZD] |  |  |  |  | MIC ([1]; S. aureus NRS 1 (hVISA)): 1 µg/mL (≈ 2.96 µM); MIC ([1]; S. aureus NRS 2): 4 µg/mL (≈ 11.9 µM); MIC ([1]; S. aureus NRS 3): 1 µg/mL (≈ 2.96 µM); MIC ([1]; S. aureus NRS 4): 1 µg/mL (≈ 2.96 µM); MIC ([1]; S. aureus NRS 13): 2 µg/mL (≈ 5.93 µM); MIC ([1]; S. aureus NRS 18): 1 µg/mL (≈ 2.96 µM); MIC ([1]; S. aureus NRS 22): 1 µg/mL (≈ 2.96 µM); MIC ([1]; S. aureus NRS 24 (hVISA)): 2 µg/mL (≈ 5.93 µM); MIC ([1]; S. aureus NRS 27): 2 µg/mL (≈ 5.93 µM)
CN[C@H](CC(C)C)C(=O)N[C@H]1C(=O)N[C@@H](CC(N)=O)C(=O)N[C@H]2C(=O)N[C@H]3C(=O)N[C@H](C(=O)N[C@H](C(=O)O)c4cc(O)cc(O)c4-c4cc3ccc4O)[C@H](O)c3ccc(c(Cl)c3)Oc3cc2cc(c3O[C@@H]2O[C@H](CO)[C@@H](O)[C@H](O)[C@H]2O[C@H]2C[C@](C)(N)[C@H](O)[C@H](C)O2)Oc2ccc(cc2Cl)[C@H]1O [VAN] |  |  |  |  | MIC ([1]; S. aureus NRS 1 (hVISA)): 4 µg/mL (≈ 2.76 µM); MIC ([1]; S. aureus NRS 2): 0.5 µg/mL (≈ 0.345 µM); MIC ([1]; S. aureus NRS 3): 8 µg/mL (≈ 5.52 µM); MIC ([1]; S. aureus NRS 4): 4 µg/mL (≈ 2.76 µM); MIC ([1]; S. aureus NRS 13): 2 µg/mL (≈ 1.38 µM); MIC ([1]; S. aureus NRS 18): 4 µg/mL (≈ 2.76 µM); MIC ([1]; S. aureus NRS 22): 4 µg/mL (≈ 2.76 µM); MIC ([1]; S. aureus NRS 24 (hVISA)): 2 µg/mL (≈ 1.38 µM); MIC ([1]; S. aureus NRS 27): 2 µg/mL (≈ 1.38 µM)
C1C[S][Bi]([S]CC[S][Bi]2[S]CC[S]2)[S]1 [Sample 4] | 0.44 | 1.48 | 3.1 | 1.7 | 
C1C[S][Bi]([S]CC[S][Bi]2[S]CC[S]2)[S]1 [Sample 12] | 0.37 | 1.2 | 2.4 | 1.3 | 
C1C[S][Bi]([S]CC[S][Bi]2[S]CC[S]2)[S]1 [Sample 9] | 0.67 | 1.0 | 1.9 | 1.1 | 
CCC[C@@H]1C[C@@H](C(=O)N[C@@H]([C@H]2O[C@H](SC)[C@H](O)[C@@H](O)[C@H]2O)[C@H](C)Cl)N(C)C1 [CLI] |  |  |  |  | MIC ([1]; S. aureus NRS 1 (hVISA)): >8 µg/mL; MIC ([1]; S. aureus NRS 2): >8 µg/mL; MIC ([1]; S. aureus NRS 3): >8 µg/mL; MIC ([1]; S. aureus NRS 4): >8 µg/mL; MIC ([1]; S. aureus NRS 13): 0.06 µg/mL (≈ 0.141 µM); MIC ([1]; S. aureus NRS 18): >8 µg/mL; MIC ([1]; S. aureus NRS 22): >8 µg/mL; MIC ([1]; S. aureus NRS 24 (hVISA)): >8 µg/mL; MIC ([1]; S. aureus NRS 27): >8 µg/mL
C1C[S][Bi]([S]CC[S][Bi]2[S]CC[S]2)[S]1.SCCS [Sample 3] | 0.59 | 1.9 | 4.5 | 2.3 | 
C1C[S][Bi]([S]CC[S][Bi]2[S]CC[S]2)[S]1 [Sample 2] | 0.58 | 1.7 | 3.9 | 2.0 | 
C1C[S][Bi]([S]CC[S][Bi]2[S]CC[S]2)[S]1.SCCS [Sample 1] | 0.80 | 2.4 | 5.9 | 2.9 | 
C1C[S][Bi]([S]CC[S][Bi]2[S]CC[S]2)[S]1 [Sample 6] | 0.34 | 0.87 | 1.8 | 0.98 | 
C1C[S][Bi]([S]CC[S][Bi]2[S]CC[S]2)[S]1 [Sample 14] | 0.36 | 1.0 | 2.1 | 1.2 | 
